Where two headings read alike, the source gives them in different places.
Columns and labels:
HepG2 cells = assay: HepG2 cytotoxicity counter-screen; details: cytotoxic activity against HepG2 cells
[1] = test system: P. falciparum male gametocytes; assay: P. falciparum Dual Gamete Formation Assay (PfDGFA), male readout (exflagellation); assay type: cell-based, Plasmodium falciparum NF54; details: for Selectivity Ratio M: HepG2 Tox50 versus male IC50; for IC50: PfDGFA, 24 h incubation with gametocytes before induction, exflagellation readout, read-out: Male IC50; for HitlevelM: number of replicates with >50% inhibition in the male readout
Outline: (§1)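 Male and female gamete formation were quantified by microscopy image analysis following 24 h incubation of mature NF54 gametocytes with compound and activation at 28°C with xanthurenic acid.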

[2] = test system: P. falciparum female gametocytes; assay: P. falciparum Dual Gamete Formation Assay (PfDGFA), female readout (Pfs25-positive female gametes); assay type: cell-based, Plasmodium falciparum NF54; details: for Selectivity ratio F: HepG2 Tox50 versus female IC50; for IC50: PfDGFA, 24 h incubation with gametocytes before induction, female gamete readout, read-out: Female IC50; for HitlevelF: number of replicates with >50% inhibition in the female readout
Outline: as §1

[3] = PfDGFA at 2µM, 24h preincubation with gametocytes, average of replicates
[4] = PfDGFA at 2µM, 24h preincubation with gametocytes, replicate R1
[5] = PfDGFA at 2µM, 24h preincubation with gametocytes, replicate R3
[6] = PfDGFA at 2µM, 24h preincubation with gametocytes, replicate R4
[7] = Plasmodium falciparum, PfDGFA at 2µM, 24h preincubation with gametocytes, average of replicates, read-out: Average inhibition male (%)
[8] = Plasmodium falciparum, PfDGFA at 2µM, 24h preincubation with gametocytes, replicate R1, read-out: % inhibition male (individual replicates) R1
[9] = Plasmodium falciparum, PfDGFA at 2µM, 24h preincubation with gametocytes, replicate R2, read-out: % inhibition male (individual replicates) R2
[10] = Plasmodium falciparum, PfDGFA at 2µM, 24h preincubation with gametocytes, replicate R3, read-out: % inhibition male (individual replicates) R3
[11] = Plasmodium falciparum, PfDGFA at 2µM, 24h preincubation with gametocytes, replicate R4, read-out: % inhibition male (individual replicates) R4
[12] = Plasmodium falciparum, PfDGFA at 2µM, 24h preincubation with gametocytes, average of replicates, read-out: Average inhibition female (%)
[13] = Plasmodium falciparum, PfDGFA at 2µM, 24h preincubation with gametocytes, replicate R1, read-out: % inhibition female (individual replicates) R1
[14] = Plasmodium falciparum, PfDGFA at 2µM, 24h preincubation with gametocytes, replicate R2, read-out: % inhibition female (individual replicates) R2
[15] = Plasmodium falciparum, PfDGFA at 2µM, 24h preincubation with gametocytes, replicate R3, read-out: % inhibition female (individual replicates) R3
[16] = Plasmodium falciparum, PfDGFA at 2µM, 24h preincubation with gametocytes, replicate R4, read-out: % inhibition female (individual replicates) R4
[17] = 2µM, 24h preincubation with gametocytes prior to induction of gametogenesis, average of replicates
[18] = 2µM, 24h preincubation with gametocytes prior to induction of gametogenesis, replicate R1
[19] = 2µM, 24h preincubation with gametocytes prior to induction of gametogenesis, replicate R3
[20] = 2µM, 24h preincubation with gametocytes prior to induction of gametogenesis, replicate R4
[21] = 2µM, 24h preincubation with gametocytes, average of replicates
[22] = 2µM, 24h preincubation with gametocytes, replicate R1
[23] = 2µM, 24h preincubation with gametocytes, replicate R3
[24] = 2µM, 24h preincubation with gametocytes, replicate R4

Row | SMILES | IC50 [1] | IC50 [2] | Tox50 (HepG2 cells) | Selectivity Ratio M [1] | Average inhibition male (%) [1, 3] | % inhibition male (individual replicates) R1 [1, 4] | % inhibition male (individual replicates) R3 [1, 5] | % inhibition male (individual replicates) R4 [1, 6] | HitlevelM ([1]; 2µM) | Selectivity ratio F [2] | Average inhibition female (%) [2, 3] | % inhibition female (individual replicates) R1 [2, 4] | % inhibition female (individual replicates) R3 [2, 5] | % inhibition female (individual replicates) R4 [2, 6] | HitlevelF ([2]; 2µM) | further results
1 | COc1cc2nc(NCc3cccc(CNC(=O)c4ccc(-c5ccc(C(C)=O)cc5)cc4)c3)nc(N)c2cc1OC.O=C(O)C(F)(F)F [TCMDC-138177] | 1630 nM | 2020 nM | 6.34 µM | 3.88 | 65.2% | 54.7% | 22.4% | 95.6% | 3 | 3.13 | 43.1% | 31.2% | 17.8% | 57.2% | 2 | 
2 | COc1ccc2nc3cc(Cl)ccc3c(NCCCCNc3c4ccc(Cl)cc4nc4ccc(OC)cc34)c2c1 [TCMDC-138218] |  |  | 2.31 µM | 6.15 |  |  |  |  | 4 | 6.16 |  |  |  |  | 4 | inhibition at 2 µM [1, 7]: 73.2%; inhibition at 2 µM [1, 8]: 64.4%; inhibition at 2 µM [1, 9]: 64.9%; inhibition at 2 µM [1, 10]: 77.2%; inhibition at 2 µM [1, 11]: 86.3%; IC50 ([1]; Plasmodium falciparum): 380 nM; inhibition at 2 µM [2, 12]: 88.1%; inhibition at 2 µM [2, 13]: 84.2%; inhibition at 2 µM [2, 14]: 86.6%; inhibition at 2 µM [2, 15]: 91.5%; inhibition at 2 µM [2, 16]: 89.9%; IC50 ([2]; Plasmodium falciparum): 380 nM
3 | COc1ccc(N2CCN(CCCCNCc3ccc(NC(=O)c4cc(Cl)cc(Cl)c4)cc3)CC2)c(OC)c1 [TCMDC-138226] | 1640 nM | 5220 nM | 5.4 µM | 3.29 | 83.1% | 85.0% | 71.2% | 96.9% | 4 | 1.04 | 28.5% | 20.8% | 39.5% | 12.9% | 0 | 
4 | CN(C)CCNCc1ccc(-c2ccc3c(Nc4ccc(Cl)cc4F)ccnc3c2)o1 [TCMDC-138391] | 1750 nM | 5590 nM | 12.91 µM | 7.38 |  |  |  |  |  | 2.31 |  |  |  |  |  | Average inhibition male (%) [1, 17]: 55.2%; % inhibition male (individual replicates) R1 [1, 18]: 62.6%; % inhibition male (individual replicates) R3 [1, 19]: 53.9%; % inhibition male (individual replicates) R4 [1, 20]: 79.6%; HitlevelM ([1]; 2µM, 24h preincubation): 3; Average inhibition female (%) [2, 17]: 37.2%; % inhibition female (individual replicates) R1 [2, 18]: 39.6%; % inhibition female (individual replicates) R3 [2, 19]: 32.6%; % inhibition female (individual replicates) R4 [2, 20]: 31.7%; HitlevelF ([2]; 2µM, 24h preincubation): 0
5 | CN(C)CCN(C)Cc1ccc(-c2ccc3c(Nc4ccc(Oc5ccccc5)cc4)ccnc3c2)o1 [TCMDC-138400] | 940 nM | 4780 nM | 3.45 µM | 3.65 |  |  |  |  |  | 0.72 |  |  |  |  |  | Average inhibition male (%) [1, 21]: 97.6%; % inhibition male (individual replicates) R1 [1, 22]: 97.3%; % inhibition male (individual replicates) R3 [1, 23]: 97.8%; % inhibition male (individual replicates) R4 [1, 24]: 99.6%; Average inhibition female (%) [2, 21]: 65.3%; % inhibition female (individual replicates) R1 [2, 22]: 57.3%; % inhibition female (individual replicates) R3 [2, 23]: 63.8%; % inhibition female (individual replicates) R4 [2, 24]: 69.5%
6 | CC(C)S(=O)(=O)N1CCN(Cc2ccc3c(c2)nc(NC(=O)c2ccsc2)n3C[C@H](O)c2ccccc2)CC1 [TCMDC-138569] |  |  | 8.48 µM | 20.83 |  |  |  |  | 4 | 0.85 |  |  |  |  | 0 | inhibition at 2 µM [1, 7]: 67.3%; inhibition at 2 µM [1, 8]: 77.8%; inhibition at 2 µM [1, 9]: 73.7%; inhibition at 2 µM [1, 10]: 62.3%; inhibition at 2 µM [1, 11]: 55.6%; IC50 ([1]; Plasmodium falciparum): 410 nM; inhibition at 2 µM [2, 12]: 9.7%; inhibition at 2 µM [2, 13]: 10.7%; inhibition at 2 µM [2, 14]: -0.7%; inhibition at 2 µM [2, 15]: -17.5%; inhibition at 2 µM [2, 16]: 46.4%; IC50 ([2]; Plasmodium falciparum): > 10000 nM
7 | CN1CCN(CCCNCc2ccc(Nc3nccc(Nc4ccc(Oc5ccccc5)cc4)n3)cc2)CC1 [TCMDC-138621] | 1770 nM | 6880 nM | 7.88 µM | 4.45 | 76.4% | 65.3% | 52.8% | 96.9% | 4 | 1.14 | 16.4% | 12.8% | 8.2% | 31.4% | 0 | 
8 | Cl.O=C1Nc2ccc3ncccc3c2/C1=C/Nc1ccc(N2CCN(CCO)CC2)cc1 [TCMDC-138634] |  |  | 33.87 µM | 229.28 |  |  |  |  |  | 3.39 |  |  |  |  |  | inhibition at 2 µM ([1]; Plasmodium falciparum, 2µM, 24h preincubation with gametocytes, average of replicates, read-out: Average inhibition male (%)): 92.8%; inhibition at 2 µM ([1]; Plasmodium falciparum, 2µM, 24h preincubation with gametocytes, replicate R1, read-out: % inhibition male (individual replicates) R1): 89.8%; inhibition at 2 µM ([1]; Plasmodium falciparum, 2µM, 24h preincubation with gametocytes, replicate R2, read-out: % inhibition male (individual replicates) R2): 91.5%; inhibition at 2 µM ([1]; Plasmodium falciparum, 2µM, 24h preincubation with gametocytes, replicate R3, read-out: % inhibition male (individual replicates) R3): 89.7%; inhibition at 2 µM ([1]; Plasmodium falciparum, 2µM, 24h preincubation with gametocytes, replicate R4, read-out: % inhibition male (individual replicates) R4): 100%; IC50 ([1]; Plasmodium falciparum): 150 nM; inhibition at 2 µM ([2]; Plasmodium falciparum, 2µM, 24h preincubation with gametocytes, average of replicates, read-out: Average inhibition female (%)): -7.8%; inhibition at 2 µM ([2]; Plasmodium falciparum, 2µM, 24h preincubation with gametocytes, replicate R1, read-out: % inhibition female (individual replicates) R1): -5.3%; inhibition at 2 µM ([2]; Plasmodium falciparum, 2µM, 24h preincubation with gametocytes, replicate R2, read-out: % inhibition female (individual replicates) R2): -7.3%; inhibition at 2 µM ([2]; Plasmodium falciparum, 2µM, 24h preincubation with gametocytes, replicate R3, read-out: % inhibition female (individual replicates) R3): -18.8%; inhibition at 2 µM ([2]; Plasmodium falciparum, 2µM, 24h preincubation with gametocytes, replicate R4, read-out: % inhibition female (individual replicates) R4): 0.25%; IC50 ([2]; Plasmodium falciparum): > 10000 nM

Second part, led by results:

Row | IC50 [1] | IC50 [2] | SMILES | Tox50 (HepG2 cells) | Selectivity Ratio M [1] | Average inhibition male (%) [1, 3] | % inhibition male (individual replicates) R1 [1, 4] | % inhibition male (individual replicates) R3 [1, 5] | % inhibition male (individual replicates) R4 [1, 6] | HitlevelM ([1]; 2µM) | Selectivity ratio F [2] | Average inhibition female (%) [2, 3] | % inhibition female (individual replicates) R1 [2, 4] | % inhibition female (individual replicates) R3 [2, 5] | % inhibition female (individual replicates) R4 [2, 6] | HitlevelF ([2]; 2µM) | further results
9 | 570 nM | 1150 nM | C=CC(C)C1OC(=O)c2cc(OC)cc(OC)c21 (stereo not shown) [TCMDC-138676] | 1.57 µM | 2.76 |  |  |  |  |  | 1.37 |  |  |  |  |  | Average inhibition male (%) [1, 21]: 100.2%; % inhibition male (individual replicates) R1 [1, 22]: 101.1%; % inhibition male (individual replicates) R3 [1, 23]: 101.1%; % inhibition male (individual replicates) R4 [1, 24]: 99.6%; Average inhibition female (%) [2, 21]: 94.9%; % inhibition female (individual replicates) R1 [2, 22]: 92.0%; % inhibition female (individual replicates) R3 [2, 23]: 102.0%; % inhibition female (individual replicates) R4 [2, 24]: 91.3%
10 | 1160 nM | 1800 nM | C=CCC1OC(=O)c2cc(OC)cc(OC)c21 (stereo not shown) [TCMDC-138677] | 2.57 µM | 2.21 |  |  |  |  |  | 1.43 |  |  |  |  |  | Average inhibition male (%) [1, 21]: 100.4%; % inhibition male (individual replicates) R1 [1, 22]: 99.9%; % inhibition male (individual replicates) R3 [1, 23]: 100.4%; % inhibition male (individual replicates) R4 [1, 24]: 100.2%; Average inhibition female (%) [2, 21]: 52.4%; % inhibition female (individual replicates) R1 [2, 22]: 41.8%; % inhibition female (individual replicates) R3 [2, 23]: 47.5%; % inhibition female (individual replicates) R4 [2, 24]: 59.2%
11 | 1940 nM | 2060 nM | COc1cc2nc(N3CCC(CNC(=O)c4ccc(-c5ccc(Cl)cc5)cc4)CC3)nc(N)c2cc1OC [TCMDC-138718] | 6.93 µM | 3.57 | 79.1% | 85.4% | 66.5% | 84.2% | 4 | 3.36 | 49.0% | 33.3% | 38.5% | 37.2% | 1 | 
